# From patent US20130029928A1 (priority 2010, published 2013)
# Like-named read-outs stand apart in the source and are kept apart here.
# Experiment: Phase I study CXR1002-001: plasma pharmacokinetics (LC-MS/MS)
# Type: in vivo, human
# Details: for concentration at 528 hr / concentration at 528 h: Time 528 hr (Day 23); for concentration at 672 hr / concentration at 672 h: Time 672 hr (Day 29); for concentration at 696 hr / concentration at 696 h: Time 696 hr (Day 30); for concentration at 840 hr / concentration at 840 h: Time 840 hr (Day 36); for concentration at 864 hr / concentration at 864 h: Time 864 hr (Day 37); for concentration at 24 hr / concentration at 24 h: Time 24 hr (Day 2); for concentration at 168 hr / concentration at 168 h: Time 168 hr (Day 8); for concentration at 336 hr / concentration at 336 h: Time 336 hr (Day 15); for concentration at 360 hr / concentration at 360 h: Time 360 hr (Day 16)
# Source text: PK samples, PD (fasting) samples, blood glucose, and blood triglyceride samples, were taken over a 6-week period.
# Dose limiting toxicity (DLT) will be based on the toxicity assessments over the first 3-week period of the repeat dosing schedule. PK samples (single blood sample) were taken on the following basis: • Every 6 weeks during the repeat dosing phase • If dosing is interrupted or stopped, samples will be taken at intervals according to patient convenience • PK sampling for safety evaluation may take place at any time, as clinically indicated
# Plasma samples were collected after the single 50 mg dose at the following timepoints: Pre-dose, and then 0.25, 0.5, 0.75, 1, 1.5, 2, 3, 4, 6, 24, 48, and 72 hours after administration and then once weekly at weeks 2, 3, 4, 5, and 6 (days 8, 15, 22, 29, and 36). For patients treated with the weekly repeat dose, plasma samples were collected at the following timepoints: Pre-dose and then 2, 3, 4 and 24 hours after administration for a total of 6 weeks. Thereafter a single sample was collected every 6 weeks for monitoring of exposure during long term treatment. Plasma samples were processed at site and stored at −80° C. prior to batch shipment to the analytical laboratory.
# [1] = human, plasma, po, 1000 mg, Patient 041, 1000 mg weekly oral dose, read-out: Concentration (plasma level)
# [2] = human, plasma, po, 1000 mg, Patient 042, 1000 mg weekly oral dose, read-out: Concentration (plasma level)
# [3] = human, plasma, po, 1200 mg, Patient 036, 1200 mg weekly oral dose, read-out: Concentration (plasma level)
# [4] = human, plasma, po, 1200 mg, Patient 037, 1200 mg weekly oral dose, read-out: Concentration (plasma level)
# [5] = human, plasma, po, 1200 mg, Patient 038, 1200 mg weekly oral dose, read-out: Concentration (plasma level)
smiles,measurement,setting,value
O=C(O)C(F)(F)C(F)(F)C(F)(F)C(F)(F)C(F)(F)C(F)(F)C(F)(F)F [CXR1002],concentration at 528 hr,[1],703 µM
same,concentration at 672 hr,[1],670 µM
same,concentration at 674 hr,[1],546 µM
same,concentration at 675 hr,[1],740 µM
same,concentration at 676 hr,"human, plasma, po, 1000 mg, Patient 041, 1000 mg weekly oral dose, Time 676 hr, read-out: Concentration (plasma level)",802 µM
same,concentration at 696 hr,[1],786 µM
same,concentration at 840 hr,[1],715 µM
same,concentration at 842 hr,[1],738 µM
same,concentration at 843 hr,"human, plasma, po, 1000 mg, Patient 041, 1000 mg weekly oral dose, Time 843 hr, read-out: Concentration (plasma level)",1010 µM
same,concentration at 864 hr,[1],1210 µM
same,concentration at 2 hr,[2],272 µM
same,concentration at 3 hr,[2],359 µM
same,concentration at 4 hr,[2],281 µM
same,concentration at 24 hr,[2],239 µM
same,concentration at 168 hr,[2],251 µM
same,concentration at 170 hr,"human, plasma, po, 1000 mg, Patient 042, 1000 mg weekly oral dose, Time 170 hr, read-out: Concentration (plasma level)",391 µM
same,concentration at 171 hr,"human, plasma, po, 1000 mg, Patient 042, 1000 mg weekly oral dose, Time 171 hr, read-out: Concentration (plasma level)",461 µM
same,concentration at 172 hr,"human, plasma, po, 1000 mg, Patient 042, 1000 mg weekly oral dose, Time 172 hr, read-out: Concentration (plasma level)",436 µM
same,concentration at 192 hr,"human, plasma, po, 1000 mg, Patient 042, 1000 mg weekly oral dose, Time 192 hr (Day 9), read-out: Concentration (plasma level)",502 µM
same,concentration at 336 hr,[2],586 µM
same,concentration at 338 hr,[2],645 µM
same,concentration at 339 hr,[2],675 µM
same,concentration at 340 hr,[2],636 µM
same,concentration at 360 hr,[2],651 µM
same,concentration at 504 hr,"human, plasma, po, 1000 mg, Patient 042, 1000 mg weekly oral dose, Time 504 hr (Day 22), read-out: Concentration (plasma level)",765 µM
same,concentration at 506 hr,"human, plasma, po, 1000 mg, Patient 042, 1000 mg weekly oral dose, Time 506 hr, read-out: Concentration (plasma level)",872 µM
same,concentration at 507 hr,"human, plasma, po, 1000 mg, Patient 042, 1000 mg weekly oral dose, Time 507 hr, read-out: Concentration (plasma level)",952 µM
same,concentration at 508 hr,"human, plasma, po, 1000 mg, Patient 042, 1000 mg weekly oral dose, Time 508 hr, read-out: Concentration (plasma level)",987 µM
same,concentration at 528 hr,[2],1230 µM
same,concentration at 672 hr,[2],1040 µM
same,concentration at 674 hr,[2],1180 µM
same,concentration at 675 hr,[2],1190 µM
same,concentration at 696 hr,[2],1280 µM
same,concentration at 840 hr,[2],1250 µM
same,concentration at 842 hr,[2],1140 µM
same,concentration at 843 hr,"human, plasma, po, 1000 mg, Patient 042, 1000 mg weekly oral dose, Time 843 hr, read-out: Concentration (plasma level)",1180 µM
same,concentration at 844 hr,"human, plasma, po, 1000 mg, Patient 042, 1000 mg weekly oral dose, Time 844 hr, read-out: Concentration (plasma level)",1160 µM
same,concentration at 864 hr,[2],1250 µM
same,concentration at 2 hr,[3],443 µM
same,concentration at 3 hr,[3],431 µM
same,concentration at 4 hr,[3],361 µM
same,concentration at 24 hr,[3],708 µM
same,concentration at 168 hr,[3],286 µM
same,concentration at 170 h,"human, plasma, po, 1200 mg, Patient 036, 1200 mg weekly oral dose, Time 170 hr, read-out: Concentration (plasma level)",680 µM
same,concentration at 171 h,"human, plasma, po, 1200 mg, Patient 036, 1200 mg weekly oral dose, Time 171 hr, read-out: Concentration (plasma level)",678 µM
same,concentration at 172 h,"human, plasma, po, 1200 mg, Patient 036, 1200 mg weekly oral dose, Time 172 hr, read-out: Concentration (plasma level)",665 µM
same,concentration at 192 h,"human, plasma, po, 1200 mg, Patient 036, 1200 mg weekly oral dose, Time 192 hr (Day 9), read-out: Concentration (plasma level)",295 µM
same,concentration at 336 hr,[3],557 µM
same,concentration at 338 hr,[3],840 µM
same,concentration at 339 hr,[3],866 µM
same,concentration at 340 hr,[3],930 µM
same,concentration at 360 hr,[3],657 µM
same,concentration at 504 h,"human, plasma, po, 1200 mg, Patient 036, 1200 mg weekly oral dose, Time 504 hr (Day 22), read-out: Concentration (plasma level)",969 µM
same,concentration at 506 h,"human, plasma, po, 1200 mg, Patient 036, 1200 mg weekly oral dose, Time 506 hr, read-out: Concentration (plasma level)",1140 µM
same,concentration at 507 h,"human, plasma, po, 1200 mg, Patient 036, 1200 mg weekly oral dose, Time 507 hr, read-out: Concentration (plasma level)",1130 µM
same,concentration at 508 h,"human, plasma, po, 1200 mg, Patient 036, 1200 mg weekly oral dose, Time 508 hr, read-out: Concentration (plasma level)",1120 µM
same,concentration at 840 h,[3],948 µM
same,concentration at 842 h,[3],1250 µM
same,concentration at 844 h,"human, plasma, po, 1200 mg, Patient 036, 1200 mg weekly oral dose, Time 844 hr, read-out: Concentration (plasma level)",1230 µM
same,concentration at 864 h,[3],1060 µM
same,concentration at 2 h,[4],256 µM
same,concentration at 3 h,[4],302 µM
same,concentration at 4 h,[4],278 µM
same,concentration at 24 h,[4],418 µM
same,concentration at 168 h,[4],422 µM
same,concentration at 170 h,"human, plasma, po, 1200 mg, Patient 037, 1200 mg weekly oral dose, Time 170 hr, read-out: Concentration (plasma level)",634 µM
same,concentration at 171 h,"human, plasma, po, 1200 mg, Patient 037, 1200 mg weekly oral dose, Time 171 hr, read-out: Concentration (plasma level)",660 µM
same,concentration at 172 h,"human, plasma, po, 1200 mg, Patient 037, 1200 mg weekly oral dose, Time 172 hr, read-out: Concentration (plasma level)",712 µM
same,concentration at 192 h,"human, plasma, po, 1200 mg, Patient 037, 1200 mg weekly oral dose, Time 192 hr (Day 9), read-out: Concentration (plasma level)",841 µM
same,concentration at 336 h,[4],780 µM
same,concentration at 338 h,[4],1050 µM
same,concentration at 339 h,[4],1040 µM
same,concentration at 340 h,[4],1030 µM
same,concentration at 360 h,[4],1140 µM
same,concentration at 504 h,"human, plasma, po, 1200 mg, Patient 037, 1200 mg weekly oral dose, Time 504 hr (Day 22), read-out: Concentration (plasma level)",1100 µM
same,concentration at 506 h,"human, plasma, po, 1200 mg, Patient 037, 1200 mg weekly oral dose, Time 506 hr, read-out: Concentration (plasma level)",1200 µM
same,concentration at 507 h,"human, plasma, po, 1200 mg, Patient 037, 1200 mg weekly oral dose, Time 507 hr, read-out: Concentration (plasma level)",1220 µM
same,concentration at 508 h,"human, plasma, po, 1200 mg, Patient 037, 1200 mg weekly oral dose, Time 508 hr, read-out: Concentration (plasma level)",1390 µM
same,concentration at 528 h,[4],1390 µM
same,concentration at 672 h,[4],1320 µM
same,concentration at 674 h,[4],1460 µM
same,concentration at 675 h,[4],1460 µM
same,concentration at 676 h,"human, plasma, po, 1200 mg, Patient 037, 1200 mg weekly oral dose, Time 676 hr, read-out: Concentration (plasma level)",1450 µM
same,concentration at 696 h,[4],1530 µM
same,concentration at 2 h,[5],313 µM
same,concentration at 3 h,[5],314 µM
same,concentration at 4 h,[5],298 µM
same,concentration at 24 h,[5],242 µM
same,concentration at 168 h,[5],268 µM
same,concentration at 170 h,"human, plasma, po, 1200 mg, Patient 038, 1200 mg weekly oral dose, Time 170 hr, read-out: Concentration (plasma level)",502 µM
same,concentration at 171 h,"human, plasma, po, 1200 mg, Patient 038, 1200 mg weekly oral dose, Time 171 hr, read-out: Concentration (plasma level)",481 µM
same,concentration at 172 h,"human, plasma, po, 1200 mg, Patient 038, 1200 mg weekly oral dose, Time 172 hr, read-out: Concentration (plasma level)",538 µM
same,concentration at 192 h,"human, plasma, po, 1200 mg, Patient 038, 1200 mg weekly oral dose, Time 192 hr (Day 9), read-out: Concentration (plasma level)",493 µM
same,concentration at 336 h,[5],462 µM
same,concentration at 338 h,[5],808 µM
same,concentration at 339 h,[5],682 µM
same,concentration at 340 h,[5],672 µM
same,concentration at 360 h,[5],749 µM
same,concentration at 504 h,"human, plasma, po, 1200 mg, Patient 038, 1200 mg weekly oral dose, Time 504 hr (Day 22), read-out: Concentration (plasma level)",566 µM
same,concentration at 506 h,"human, plasma, po, 1200 mg, Patient 038, 1200 mg weekly oral dose, Time 506 hr, read-out: Concentration (plasma level)",658 µM
same,concentration at 507 h,"human, plasma, po, 1200 mg, Patient 038, 1200 mg weekly oral dose, Time 507 hr, read-out: Concentration (plasma level)",788 µM
same,concentration at 508 h,"human, plasma, po, 1200 mg, Patient 038, 1200 mg weekly oral dose, Time 508 hr, read-out: Concentration (plasma level)",699 µM
same,concentration at 528 h,[5],746 µM
same,concentration at 672 h,[5],682 µM
same,concentration at 674 h,[5],932 µM
same,concentration at 675 h,[5],885 µM
same,concentration at 676 h,"human, plasma, po, 1200 mg, Patient 038, 1200 mg weekly oral dose, Time 676 hr, read-out: Concentration (plasma level)",708 µM
same,concentration at 696 h,[5],802 µM
same,concentration at 840 h,[5],687 µM
same,concentration at 842 h,[5],895 µM
same,concentration at 843 h,"human, plasma, po, 1200 mg, Patient 038, 1200 mg weekly oral dose, Time 843 hr, read-out: Concentration (plasma level)",955 µM
same,concentration at 844 h,"human, plasma, po, 1200 mg, Patient 038, 1200 mg weekly oral dose, Time 844 hr, read-out: Concentration (plasma level)",914 µM
same,concentration at 864 h,[5],958 µM
same,gender difference in exposure,in vivo,no gender difference
same,accumulation,weekly dose,accumulates
same,maximal blood level reached,weekly repeat dose (Pharmacokinetic Summary),617 µM
